Test results published in US20230051589A1, “COMPOUNDS AND COMPOSITIONS FOR TREATING CONDITIONS ASSOCIATED WITH NLRP ACTIVITY” (Novartis AG, priority 2018, published 2023).

Test system: IL-1β production in PMA-differentiated THP-1 cells
Assay: IL-1β production in PMA-differentiated THP-1 cells stimulated with gramicidin (hTHP-1 assay, 2% fetal bovine serum; Procedures 1-3)
Type: cell-based, human
Conditions: Homo sapiens, THP-1, Table B3; hTHP-1 assay containing 2% fetal bovine serum, gramicidin stimulation, IL-1β readout; read-out: hTHP-1 IC50
Outline: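 IL-1β released into supernatants was read by HTRF after 2 h gramicidin (5 μM) challenge. Before challenge, compounds (3-fold dilutions, top 100 μM, 0.37% DMSO) were given 1 h on THP-1 cells differentiated with PMA (20 ng/ml, 16-18 h) and held in 2% FBS medium.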

Row | SMILES | IC50
1 | NS(=O)(=NC(=O)Nc1c2c(cc3c1CCC3)CCC2)c1ccc(-c2ccccc2)s1 (single isomer, unassigned) [Example 799, (R) or (S)-N′-((1,2,3,5,6,7-hexahydro-s-indacen-4-yl)carbamoyl)-5-phenylthiophene-2-sulfonimidamide] | > 30 µM

Same assay, conditions: Table B3; hTHP-1 assay containing 2% fetal bovine serum, gramicidin stimulation, IL-1β readout; read-out: hTHP-1 IC50

Row | SMILES | IC50
2 | NS(=O)(=NC(=O)Nc1c2c(cc3c1CCC3)CCC2)c1sc(CNC2CCC2)cc1F (single isomer, unassigned) [Example 796, (S) or (R)-5-((cyclobutylamino)methyl)-3-fluoro-N′-((1,2,3,5,6,7-hexahydro-s-indacen-4-yl)carbamoyl)thiophene-2-sulfonimidamide] | 5 to 30 µM
3 | CN(Cc1ccc(S(N)(=O)=NC(=O)Nc2c3c(cc4c2CC4)CCC3)c(F)c1)C1CCC1 (single isomer, unassigned) [Example 797, (R) or (S)-4-((cyclobutyl(methyl)amino)methyl)-2-fluoro-N′-((2,4,5,6-tetrahydro-1H-cyclobuta[f]inden-3-yl)carbamoyl)benzenesulfonimidamide] | 0.2 to 1 µM
4 | CN(Cc1ccc(S(N)(=O)=NC(=O)Nc2c3c(cc4c2CC4)CCC3)c(F)c1)C1CCC1 (single isomer, unassigned) [Example 798, (S) or (R)-4-((cyclobutyl(methyl)amino)methyl)-2-fluoro-N′-((2,4,5,6-tetrahydro-1H-cyclobuta[f]inden-3-yl)carbamoyl)benzenesulfonimidamide] | > 30 µM
5 | NS(=O)(=NC(=O)Nc1c2c(cc3c1CCC3)CCC2)c1ccc(-c2ccccc2)s1 (single isomer, unassigned) [Example 800, (S) or (R)-N′-((1,2,3,5,6,7-hexahydro-s-indacen-4-yl)carbamoyl)-5-phenylthiophene-2-sulfonimidamide] | > 30 µM
6 | CC(C)(O)c1sc(S(N)(=O)=NC(=O)Nc2c3c(cc4c2CCC4)CCC3)cc1-c1ccccc1 (single isomer, unassigned) [Example 801, (S) or (R)-N′-((1,2,3,5,6,7-hexahydro-s-indacen-4-yl)carbamoyl)-5-(2-hydroxypropan-2-yl)-4-phenylthiophene-2-sulfonimidamide] | 5 to 30 µM
7 | CC(C)(O)c1sc(S(N)(=O)=NC(=O)Nc2c3c(cc4c2CCC4)CCC3)cc1-c1ccccc1 (single isomer, unassigned) [Example 802, (R) or (S)-N′-((1,2,3,5,6,7-hexahydro-s-indacen-4-yl)carbamoyl)-5-(2-hydroxypropan-2-yl)-4-phenylthiophene-2-sulfonimidamide] | 0.04 to 0.2 µM
8 | CN(C)Cc1ccc(S(N)(=O)=NC(=O)Nc2c3c(cc4c2CCC4)CCC3)s1 (single isomer, unassigned) [Example 803, (R) or (S)-5-((dimethylamino)methyl)-N′-((1,2,3,5,6,7-hexahydro-5-indacen-4-yl)carbamoyl)thiophene-2-sulfonimidamide] | 0.2 to 1 µM
9 | CN(C)Cc1ccc(S(N)(=O)=NC(=O)Nc2c3c(cc4c2CCC4)CCC3)s1 (single isomer, unassigned) [Example 804, (S) or (R)-5-((dimethvlamino)methyl)-N′-((1,2,3,5,6,7-hexahydro-s-indacen-4-yl)carbamoyl)thiophene-2-sulfonimidamide] | 5 to 30 µM
10 | CC(C)n1nc(S(N)(=O)=NC(=O)Nc2c3c(cc4c2C(=O)CC4)CCC3)cc1C(C)(C)O (single isomer, unassigned) [Example 805, (R) or (S)-5-(2-hydroxypropan-2-yl)-1-isopropyl-N′-((3-oxo-1,2,3,5,6,7-hexahydro-s-indacen-4-yl)carbamoyl)-1H-pyrazole-3-sulfonimidamide] | 0.2 to 1 µM
11 | CC(C)n1nc(S(N)(=O)=NC(=O)Nc2c3c(cc4c2C(=O)CC4)CCC3)cc1C(C)(C)O (single isomer, unassigned) [Example 806, (S) or (R)-5-(2-hydroxypropan-2-yl)-1-isopropyl-N′-((3-oxo-1,2,3,5,6,7-hexahydro-5-indacen-4-yl)carbamoyl)-1H-pyrazole-3-sulfonimidamide] | > 30 µM
12 | CC(C)(O)c1nc(CO)c(S(N)(=O)=NC(=O)Nc2c3c(cc4c2C(=O)CC4)CCC3)s1 (single isomer, unassigned) [Example 807, (S) or (R)-4-(hydroxymethyl)-2-(2-hydroxypropan-2-yl)-N′-((3-oxo-1,2,3,5,6,7-hexahydro-s-indacen-4-yl)carbamoyl)thiazole-5-sulfonimidamide] | 5 to 30 µM
13 | CC(C)(O)c1nc(CO)c(S(N)(=O)=NC(=O)Nc2c3c(cc4c2C(=O)CC4)CCC3)s1 (single isomer, unassigned) [Example 808, (R) or (S)-4-(hydroxymethyl)-2-(2-hydroxypropan-2-yl)-N′-((3-oxo-1,2,3,5,6,7-hexahydro-s-indacen-4-yl)carbamoyl)thiazole-5-sulfonimidamide] | 1 to 5 µM
14 | CN(C)CC(C)(C)c1ccc(S(N)(=O)=NC(=O)Nc2c3c(cc4c2CCC4)CCC3)cc1 (single isomer, unassigned) [Example 809, (R) or (S)-4-(1-(dimethylamino)-2-methylpropan-2-yl)-N′-((1,2,3,5,6,7-hexahydro-s-indacen-4-yl)carbamoyl)benzenesulfonimidamide] | 0.2 to 1 µM
15 | CN(C)CC(C)(C)c1ccc(S(N)(=O)=NC(=O)Nc2c3c(cc4c2CCC4)CCC3)cc1 (single isomer, unassigned) [Example 810, (S) or (R)-4-(1-(dimethylamino)-2-methylpropan-2-yl)-N′-((1,2,3,5,6,7-hcxahydro-s-indaccn-4-yl)carbamoyl)benzenesulfonimidamide] | 5 to 30 µM
16 | CC(C)c1cnc(S(N)(=O)=NC(=O)Nc2c3c(cc4c2CCC4)CCC3)c(F)c1 (single isomer, unassigned) [Example 811, (R) or (S)-3-fluoro-N′-((1,2,3,5,6,7-hexahydro-s-indacen-4-yl)carbamoyl)-5-isopropylpyridine-2-sulfonimidamide] | 0.2 to 1 µM
17 | CC(C)c1cnc(S(N)(=O)=NC(=O)Nc2c3c(cc4c2CCC4)CCC3)c(F)c1 (single isomer, unassigned) [Example 812, (S) or (R)-3-fluoro-N′-((1,2,3,5,6,7-hexahydro-s-indacen-4-yl)carbamoyl)-5-isopropylpyridine-2-sulfonimidamide] | 5 to 30 µM
18 | CCn1ccc(S(N)(=O)=NC(=O)Nc2c3c(cc4c2CCC4)CCC3)n1 (single isomer, unassigned) [Example 813, (R) or (S)-1-ethyl-N′-((1,2,3,5,6,7-hexahydro-s-indacen-4-yl)carbamoyl)-1H-pyrazole-3-sulfonimidamide] | 0.04 to 0.2 µM
19 | CCn1ccc(S(N)(=O)=NC(=O)Nc2c3c(cc4c2CCC4)CCC3)n1 (single isomer, unassigned) [Example 814, (S) or (R)-1-ethyl-N′-((1,2,3,5,6,7-hexahydro-s-indacen-4-yl)carbamoyl)-1H-pyrazole-3-sulfonimidamide] | 1 to 5 µM
20 | C[C@](O)(CO)c1ncc(S(N)(=O)=NC(=O)Nc2c3c(cc4c2CC4)CCC3)s1 (single isomer, unassigned) [Example 815, (R) or (S)-2-((S)-1,2-dihydroxypropan-2-yl)-N′-((2,4,5,6-tetrahydro-1H-cyclobuta[f]inden-3-yl)carbamoyl)thiazole-5-sulfonimidamide] | 0.008 to 0.04 µM
